{"source": "patent US7776858B2", "about": "“Methods of treatment of chronic pain using eszopiclone” (Sepracor Inc., priority 2004, dated 2010)", "key": {"[1]": {"tested_on": "subjects with insomnia related to rheumatoid arthritis", "assay": "Arthritis Self-Efficacy Scale, clinical study of eszopiclone 3 mg vs placebo", "assay_type": "in vivo, human", "conditions": "3 mg nightly, visit 6 (EOS), ITT", "protocol": "(§1) The study was aimed at observing the effect of eszopiclone 3 mg compared to placebo on daytime function in subjects with insomnia related to rheumatoid arthritis. The study was a multicenter, randomized, double-blind, placebo controlled, parallel group study.\n(§2) A total of 153 subjects were randomized. Among them, 77 received 3 mg of eszopiclone (ESZ) nightly (at bedtime) for four weeks and 76 received matching placebo (PBO). […] In addition, subjects had insomnia symptoms including wake time after sleep onset (WASO) of ≧45 minutes, and total sleep time ≦6.5 hours. Diagnosis of rheumatoid arthritis predated the onset of insomnia symptoms.\n(§3) During the double blind treatment, subjects were dosed with 3 mg eszopiclone (ESZ) or matching placebo (PBO) nightly (at bedtime) for four weeks. Data was analyzed with one-sided significance tests."}, "mice": {"tested_on": "mice", "assay": "Antagonism of oxotremorine induced salivation", "assay_type": "in vivo", "conditions": "doses up to 300 mg/kg, p.o.", "protocol": "Eszopiclone was evaluated for antimuscarinic activity in vivo."}, "[2]": {"tested_on": "subjects with insomnia related to rheumatoid arthritis", "assay": "Subject Pain Severity Assessment (0 to 10 scale), clinical study of eszopiclone 3 mg vs placebo", "assay_type": "in vivo, human", "protocol": "as §1\nas §2, with “(PBO). The discontinuation rates were low, 5.2% in the ESZ group and 9.2% in the PBO group. The patient population was predominantly female (87%) and Caucasian (84%). Mean age was 52, with a range of 27-64.” for “(PBO).”\nas §3"}, "[3]": {"conditions": "3 mg nightly, visit 5 (Week 4), ITT, scale 0 to 10"}}}
{"smiles": "CN1CCN(C(=O)O[C@H]2c3nccnc3C(=O)N2c2ccc(Cl)cn2)CC1", "note": "[Eszopiclone, (+) 6-(5-chloropyrid-2-yl)-5-(4-methylpiperazin-1-yl)carbonyloxy-7-oxo-6,7-dihydro-5H-pyrrolo[3-4-b]pyrazine]", "values": [{"measurement": "Arthritis Self-Efficacy Scale Function, Change from Baseline, Median", "setting": "[1]", "value": 5.0}, {"measurement": "Arthritis Self-Efficacy Scale Function, Change from Baseline, Minimum", "setting": "[1]", "value": "−45.0"}, {"measurement": "Arthritis Self-Efficacy Scale Function, Observed Value, 25th Percentile", "setting": "[1]", "value": 45.0}, {"measurement": "Arthritis Self-Efficacy Scale Function, Observed Value, 75th Percentile", "setting": "[1]", "value": 85.0}, {"measurement": "Arthritis Self-Efficacy Scale Function, Observed Value, Maximum", "setting": "[1]", "value": 90.0}, {"measurement": "Arthritis Self-Efficacy Scale Function, Observed Value, Mean (SD)", "setting": "[1]", "value": "64.1 (20.5)"}, {"measurement": "Arthritis Self-Efficacy Scale Function, Observed Value, Median", "setting": "[1]", "value": 65.0}, {"measurement": "Arthritis Self-Efficacy Scale Function, Observed Value, Minimum", "setting": "[1]", "value": 23.0}, {"measurement": "Arthritis Self-Efficacy Scale Other Symptoms, Change from Baseline, 25th Percentile", "setting": "[1]", "value": "−2.5"}, {"measurement": "Arthritis Self-Efficacy Scale Other Symptoms, Change from Baseline, 75th Percentile", "setting": "[1]", "value": 10.0}, {"measurement": "Arthritis Self-Efficacy Scale Other Symptoms, Change from Baseline, Maximum", "setting": "[1]", "value": 39.0}, {"measurement": "Arthritis Self-Efficacy Scale Other Symptoms, Change from Baseline, Mean (SD)", "setting": "[1]", "value": "3.8 (10.7)"}, {"measurement": "Arthritis Self-Efficacy Scale Other Symptoms, Change from Baseline, Median", "setting": "[1]", "value": 3.0}, {"measurement": "Arthritis Self-Efficacy Scale Other Symptoms, Change from Baseline, Minimum", "setting": "[1]", "value": "−24.0"}, {"measurement": "Arthritis Self-Efficacy Scale Other Symptoms, Observed Value, 25th Percentile", "setting": "[1]", "value": 31.0}, {"measurement": "Arthritis Self-Efficacy Scale Other Symptoms, Observed Value, 75th Percentile", "setting": "[1]", "value": 51.0}, {"measurement": "Arthritis Self-Efficacy Scale Other Symptoms, Observed Value, Maximum", "setting": "[1]", "value": 59.0}, {"measurement": "Arthritis Self-Efficacy Scale Other Symptoms, Observed Value, Mean (SD)", "setting": "[1]", "value": "40.6 (12.6)"}, {"measurement": "Arthritis Self-Efficacy Scale Other Symptoms, Observed Value, Median", "setting": "[1]", "value": 41.5}, {"measurement": "Arthritis Self-Efficacy Scale Other Symptoms, Observed Value, Minimum", "setting": "[1]", "value": 8.0}, {"measurement": "Arthritis Self-Efficacy Scale Overall, Change from Baseline, 25th Percentile", "setting": "[1]", "value": "−3.0"}, {"measurement": "Arthritis Self-Efficacy Scale Overall, Change from Baseline, 75th Percentile", "setting": "[1]", "value": 32.0}, {"measurement": "Arthritis Self-Efficacy Scale Overall, Change from Baseline, Maximum", "setting": "[1]", "value": 84.0}, {"measurement": "Arthritis Self-Efficacy Scale Overall, Change from Baseline, Mean (SD)", "setting": "[1]", "value": "14.0 (30.5)"}, {"measurement": "Arthritis Self-Efficacy Scale Overall, Change from Baseline, Median", "setting": "[1]", "value": 12.5}, {"measurement": "Arthritis Self-Efficacy Scale Overall, Change from Baseline, Minimum", "setting": "[1]", "value": "−89.0"}, {"measurement": "Arthritis Self-Efficacy Scale Overall, Observed Value, 25th Percentile", "setting": "[1]", "value": 111.0}, {"measurement": "Arthritis Self-Efficacy Scale Overall, Observed Value, 75th Percentile", "setting": "[1]", "value": 163.0}, {"measurement": "Arthritis Self-Efficacy Scale Overall, Observed Value, Maximum", "setting": "[1]", "value": 193.0}, {"measurement": "Arthritis Self-Efficacy Scale Overall, Observed Value, Mean (SD)", "setting": "[1]", "value": "134.5 (35.9)"}, {"measurement": "Arthritis Self-Efficacy Scale Overall, Observed Value, Median", "setting": "[1]", "value": 133.0}, {"measurement": "Arthritis Self-Efficacy Scale Overall, Observed Value, Minimum", "setting": "[1]", "value": 50.0}, {"measurement": "Arthritis Self-Efficacy Scale Pain and Other Symptoms, Change from Baseline, 25th Percentile", "setting": "[1]", "value": "−5.0"}, {"measurement": "Arthritis Self-Efficacy Scale Pain and Other Symptoms, Change from Baseline, 75th Percentile", "setting": "[1]", "value": 17.0}, {"measurement": "Arthritis Self-Efficacy Scale Pain and Other Symptoms, Change from Baseline, Maximum", "setting": "[1]", "value": 52.7}, {"measurement": "Arthritis Self-Efficacy Scale Pain and Other Symptoms, Change from Baseline, Mean (SD)", "setting": "[1]", "value": "7.0 (18.5)"}, {"measurement": "Arthritis Self-Efficacy Scale Pain and Other Symptoms, Change from Baseline, Median", "setting": "[1]", "value": 7.5}, {"measurement": "Arthritis Self-Efficacy Scale Pain and Other Symptoms, Change from Baseline, Minimum", "setting": "[1]", "value": "−44.0"}, {"measurement": "Arthritis Self-Efficacy Scale Pain and Other Symptoms, Observed Value, 25th Percentile", "setting": "[1]", "value": 55.0}, {"measurement": "Arthritis Self-Efficacy Scale Pain and Other Symptoms, Observed Value, 75th Percentile", "setting": "[1]", "value": 88.0}, {"measurement": "Arthritis Self-Efficacy Scale Pain and Other Symptoms, Observed Value, Maximum", "setting": "[1]", "value": 107.0}, {"measurement": "Arthritis Self-Efficacy Scale Pain and Other Symptoms, Observed Value, Mean (SD)", "setting": "[1]", "value": "70.0 (21.0)"}, {"measurement": "Arthritis Self-Efficacy Scale Pain and Other Symptoms, Observed Value, Median", "setting": "[1]", "value": 71.0}, {"measurement": "Arthritis Self-Efficacy Scale Pain and Other Symptoms, Observed Value, Minimum", "setting": "[1]", "value": 27.0}, {"measurement": "Arthritis Self-Efficacy Scale Pain, Change from Baseline, 25th Percentile", "setting": "[1]", "value": "−4.0"}, {"measurement": "Arthritis Self-Efficacy Scale Pain, Change from Baseline, 75th Percentile", "setting": "[1]", "value": 8.0}, {"measurement": "Arthritis Self-Efficacy Scale Pain, Change from Baseline, Maximum", "setting": "[1]", "value": 35.0}, {"measurement": "Arthritis Self-Efficacy Scale Pain, Change from Baseline, Mean (SD)", "setting": "[1]", "value": "2.7 (10.5)"}, {"measurement": "Arthritis Self-Efficacy Scale Pain, Change from Baseline, Median", "setting": "[1]", "value": 2.0}, {"measurement": "Arthritis Self-Efficacy Scale Pain, Change from Baseline, Minimum", "setting": "[1]", "value": "−20.0"}, {"measurement": "Arthritis Self-Efficacy Scale Pain, Observed Value, 25th Percentile", "setting": "[1]", "value": 22.0}, {"measurement": "Arthritis Self-Efficacy Scale Pain, Observed Value, 75th Percentile", "setting": "[1]", "value": 37.0}, {"measurement": "Arthritis Self-Efficacy Scale Pain, Observed Value, Maximum", "setting": "[1]", "value": 49.0}, {"measurement": "Arthritis Self-Efficacy Scale Pain, Observed Value, Mean (SD)", "setting": "[1]", "value": "29.2 (9.8)"}, {"measurement": "Arthritis Self-Efficacy Scale Pain, Observed Value, Median", "setting": "[1]", "value": 30.0}, {"measurement": "Arthritis Self-Efficacy Scale Pain, Observed Value, Minimum", "setting": "[1]", "value": 9.0}, {"measurement": "Arthritis Self-Efficacy Scale Function, Change from Baseline, Least Squares Means (SE) [2]", "setting": "[1]; ANCOVA", "value": "6.2 (1.6)"}, {"measurement": "Arthritis Self-Efficacy Scale Other Symptoms, Change from Baseline, Least Squares Means (SE) [2]", "setting": "[1]; ANCOVA", "value": "3.3 (1.1)"}, {"measurement": "Arthritis Self-Efficacy Scale Overall, Change from Baseline, Least Squares Means (SE) [2]", "setting": "[1]; ANCOVA", "value": "12.4 (2.9)"}, {"measurement": "Arthritis Self-Efficacy Scale Pain and Other Symptoms, Change from Baseline, Least Squares Means (SE) [2]", "setting": "[1]; ANCOVA", "value": "6.1 (1.8)"}, {"measurement": "Arthritis Self-Efficacy Scale Pain, Change from Baseline, Least Squares Means (SE) [2]", "setting": "[1]; ANCOVA", "value": "2.4 (0.9)"}, {"measurement": "antagonism of oxotremorine induced salivation", "setting": "mice", "value": "neither (R)-, (S)-, nor racemic zopiclone significantly antagonized"}, {"measurement": "effect on change from baseline to the end of study in the Subject Pain Severity Assessment", "setting": "[2]; 3 mg nightly vs placebo", "value": "significant effect"}, {"measurement": "Subject Pain Severity Assessment, Change from Baseline, Least Squares Means (SE) [2]", "setting": "[2]; 3 mg nightly, visit 5 (Week 4), ITT, ANCOVA", "value": "−0.5 (0.2)"}, {"measurement": "Subject Pain Severity Assessment, Change from Baseline, 25th Percentile", "setting": "[2]; [3]", "value": "−2.0"}, {"measurement": "Subject Pain Severity Assessment, Change from Baseline, 75th Percentile", "setting": "[2]; [3]", "value": 0.5}, {"measurement": "Subject Pain Severity Assessment, Change from Baseline, Maximum", "setting": "[2]; [3]", "value": 7.0}, {"measurement": "Subject Pain Severity Assessment, Change from Baseline, Mean (SD)", "setting": "[2]; [3]", "value": "−0.5 (2.6)"}, {"measurement": "Subject Pain Severity Assessment, Change from Baseline, Median", "setting": "[2]; [3]", "value": "−1.0"}, {"measurement": "Subject Pain Severity Assessment, Change from Baseline, Minimum", "setting": "[2]; [3]", "value": "−7.0"}, {"measurement": "Subject Pain Severity Assessment, Observed Value, 25th Percentile", "setting": "[2]; [3]", "value": 2.5}, {"measurement": "Subject Pain Severity Assessment, Observed Value, 75th Percentile", "setting": "[2]; [3]", "value": 7.0}, {"measurement": "Subject Pain Severity Assessment, Observed Value, Maximum", "setting": "[2]; [3]", "value": 10.0}, {"measurement": "Subject Pain Severity Assessment, Observed Value, Mean (SD)", "setting": "[2]; [3]", "value": "4.6 (2.7)"}, {"measurement": "Subject Pain Severity Assessment, Observed Value, Median", "setting": "[2]; [3]", "value": 5.0}, {"measurement": "Subject Pain Severity Assessment, Observed Value, Minimum", "setting": "[2]; [3]", "value": 0.0}]}
